Measurements published in patent US8889854B2, “C-17 bicyclic amines of triterpenoids with HIV maturation inhibitory activity” (priority 2012, dated 2014).

Test system: recombinant NL4-3 virus (Renilla luciferase in nef, Gag P373S; NLRluc)
Experiment: HIV Cell Culture Assay (luciferase reporter virus in MT-2 cells)
Format: cell-based
Settings: Renilla, NL43, MT-2 cells infected for 4-5 days with NLRluc recombinants; luciferase activity
Method: MT-2 cells and 293T cells were obtained from the NIH AIDS Research and Reference Reagent Program. MT-2 cells were propagated in RPMI 1640 media supplemented with 10% heat inactivated fetal bovine serum, […]. The 293T cells were propagated in DMEM media supplemented with 10% heat inactivated fetal bovine serum (FBS), 100 units/mL penicillin G and 100 μg/mL streptomycin. The proviral DNA clone of NL4-3 was obtained from the NIH AIDS Research and Reference Reagent Program. A recombinant NL4-3 virus, in which a section of the nef gene from NL4-3 was replaced with the Renilla luciferase gene, was used as a reference virus. In addition, residue Gag P373 was converted to P373S. Briefly, the recombinant virus was prepared by transfection of the altered proviral clone of NL4-3. Transfections were performed in 293T cells using LipofectAMINE PLUS from Invitrogen (Carlsbad, Calif.), according to manufacturer's instruction. The virus was titered in MT-2 cells using luciferase enzyme activity as a marker. Luciferase was quantitated using the Dual Luciferase kit from Promega (Madison, Wis.), with modifications to the manufacturer's protocol. The diluted Passive Lysis solution was pre-mixed with the re-suspended Luciferase Assay Reagent and the re-suspended Stop & Glo Substrate (2:1:1 ratio). Fifty (50) μL of the mixture was added to each aspirated well on assay plates and luciferase activity was measured immediately on a Wallac TriLux (Perkin-Elmer). Antiviral activities of inhibitors toward the recombinant virus were quantified by measuring luciferase activity in cells infected for 4-5 days with NLRluc recombinants in the presence serial dilutions of the inhibitor. Table 1 is the key for the data in Table 2.

**Q.** With `C=C(C)[C@@H]1CC[C@]2(NCCN3C[C@H]4C[C@@H](C3)N4S(C)(=O)=O)CC[C@]3(C)[C@H](CC[C@@H]4[C@@]5(C)CC=C(c6ccc(C(=O)O)cc6)C(C)(C)[C@@H]5CC[C@]43C)[C@@H]12` [Example 14, 4-((1R,3aS,5aR,5bR,7aR,11aS,11bR,13aR,13bR)-5a,5b,8,8,11a-pentamethyl-3a-((2-((1R,5S)-6-(methylsulfonyl)-3,6-diazabicyclo[3.1.1]heptan-3-yl)ethyl)amino)-1-(prop-1-en-2-yl)-2,3,3a,4,5,5a,5b,6,7,7a,8,11,11a,11b,12,13,13a,13b-octadecahydro-1H-cyclopenta[a]chrysen-9-yl)benzoic acid] as the compound, how does the EC50 read?
**A.** Its EC50 is 3.24 nM.

**Q.** For `C=C(C)[C@@H]1CC[C@]2(NCCN3CCC4(C3)CN(S(C)(=O)=O)C4)CC[C@]3(C)[C@H](CC[C@@H]4[C@@]5(C)CC=C(c6ccc(C(=O)O)cc6)C(C)(C)[C@@H]5CC[C@]43C)[C@@H]12` [Example 15, 4-((1R,3aS,5aR,5bR,7aR,11aS,11bR,13aR,13bR)-5a,5b,8,8,11a-pentamethyl-3a-((2-(2-(methylsulfonyl)-2,6-diazaspiro[3.4]octan-6-yl)ethyl)amino)-1-(prop-1-en-2-yl)-2,3,3a,4,5,5a,5b,6,7,7a,8,11,11a,11b,12,13,13a,13b-octadecahydro-1H-cyclopenta[a]chrysen-9-yl)benzoic acid], which EC50 is on record?
**A.** Its EC50 is 1.65 nM.

**Q.** `C=C(C)[C@@H]1CC[C@]2(NCCN3CC4(C3)CN(S(C)(=O)=O)C4)CC[C@]3(C)[C@H](CC[C@@H]4[C@@]5(C)CC=C(c6ccc(C(=O)O)cc6)C(C)(C)[C@@H]5CC[C@]43C)[C@@H]12` [Example 16, 4-((1R,3aS,5aR,5bR,7aR,11aS,11bR,13 aR,13bR)-5a,5b,8,8,11a-pentamethyl-3a-((2-(6-(methylsulfonyl)-2,6-diazaspiro[3.3]heptan-2-yl)ethyl)amino)-1-(prop-1-en-2-yl)-2,3,3a,4,5,5a,5b,6,7,7a,8,11,11a,11b,12,13,13a,13b-octadecahydro-1H-cyclopenta[a]chrysen-9-yl)benzoic acid] was tested. Which EC50 did it give?
**A.** Its EC50 is 1.64 nM.

**Q.** Which EC50 does the source give for `C=C(C)[C@@H]1CC[C@]2(NCCN3[C@@H]4CCC[C@H]3COC4)CC[C@]3(C)[C@H](CC[C@@H]4[C@@]5(C)CC=C(c6ccc(C(=O)O)cc6)C(C)(C)[C@@H]5CC[C@]43C)[C@@H]12` [Example A1, 4-((1R,3aS,5aR,5bR,7aR,11aS,11bR,13aR,13bR)-3a-((2-((1R,5S)-3-oxa-9-azabicyclo[3.3.1]nonan-9-yl)ethyl)amino)-5a,5b,8,8,11a-pentamethyl-1-(prop-1-en-2-yl)-2,3,3a,4,5,5a,5b,6,7,7a,8,11,11a,11b,12,13,13a,13b-octadecahydro-1H-cyclopenta[a]chrysen-9-yl)benzoic acid] here?
**A.** Its EC50 is 30 nM.

**Q.** `C=C(C)[C@@H]1CC[C@]2(NCCN3CC4CCC(C3)O4)CC[C@]3(C)[C@H](CC[C@@H]4[C@@]5(C)CC=C(c6ccc(C(=O)O)cc6)C(C)(C)[C@@H]5CC[C@]43C)[C@@H]12` [Example A2, 4-((1R,3aS,5aR,5bR,7aR,11aS,11bR,13aR,13bR)-3a-((2-(8-oxa-3-azabicyclo[3.2.1]octan-3-yl)ethyl)amino)-5a,5b,8,8,11a-pentamethyl-1-(prop-1-en-2-yl)-2,3,3a,4,5,5a,5b,6,7,7a,8,11,11a,11b,12,13,13a,13b-octadecahydro-1H-cyclopenta[a]chrysen-9-yl)benzoic acid] was tested. Which EC50 did it give?
**A.** Its EC50 is 71 nM.

**Q.** With `C=C(C)[C@@H]1CC[C@]2(NCCN3C4COCC3COC4)CC[C@]3(C)[C@H](CC[C@@H]4[C@@]5(C)CC=C(c6ccc(C(=O)O)cc6)C(C)(C)[C@@H]5CC[C@]43C)[C@@H]12` [Example A3, 4-((1R,3aS,5aR,5bR,7aR,11aS,11bR,13aR,13bR)-3a-((2-((1R,5R)-3,7-dioxa-9-azabicyclo[3.3.1]nonan-9-yl)ethyl)amino)-5a,5b,8,8,11a-pentamethyl-1-(prop-1-en-2-yl)-2,3,3a,4,5,5a,5b,6,7,7a,8,11,11a,11b,12,13,13a,13b-octadecahydro-1H-cyclopenta[a]chrysen-9-yl)benzoic acid] as the compound, how does the EC50 read?
**A.** Its EC50 is 83 nM.

**Q.** With `C=C(C)[C@@H]1CC[C@]2(NCCN3C4CCC3CC(C)(O)C4)CC[C@]3(C)[C@H](CC[C@@H]4[C@@]5(C)CC=C(c6ccc(C(=O)O)cc6)C(C)(C)[C@@H]5CC[C@]43C)[C@@H]12` (stereo partly drawn) [Example A4, 4-((1R,3aS,5aR,5bR,7aR,11aS,11bR,13aR,13bR)-3a-((2-((1R,3S,5S)-3-hydroxy-3-methyl-8-azabicyclo[3.2.1]octan-8-yl)ethyl)amino)-5a,5b,8,8,11a-pentamethyl-1-(prop-1-en-2-yl)-2,3,3a,4,5,5a,5b,6,7,7a,8,11,11a,11b,12,13,13a,13b-octadecahydro-1H-cyclopenta[a]chrysen-9-yl)benzoic acid] as the compound, how does the EC50 read?
**A.** Its EC50 is 8.8 nM.

Same assay, conditions: Renilla, NL43, MT-2 cells infected for 4-5 days with NLRluc recombinants; luciferase activity; reported as group A/B

**Q.** Which EC50 does the source give for `C=C(C)[C@@H]1CC[C@]2(NCCN3C[C@@H]4C[C@H]3CN4S(C)(=O)=O)CC[C@]3(C)[C@H](CC[C@@H]4[C@@]5(C)CC=C(c6ccc(C(=O)O)cc6)C(C)(C)[C@@H]5CC[C@]43C)[C@@H]12` [Example 11, 4-((1R,3aS,5aR,5bR,7aR,11aS,11bR,13aR,13bR)-5a,5b,8,8,11a-pentamethyl-3a-((2-((1S,4S)-5-(methylsulfonyl)-2,5-diazabicyclo[2.2.1]heptan-2-yl)ethyl)amino)-1-(prop-1-en-2-yl)-2,3,3a,4,5,5a,5b,6,7,7a,8,11,11a,11b,12,13,13a,13b-octadecahydro-1H-cyclopenta[a]chrysen-9-yl)benzoic acid] here?
**A.** Its EC50 is < 100 nM.

**Q.** For `CC(C)[C@@H]1CC[C@]2(NCCN3C[C@@H]4C[C@H]3CN4S(C)(=O)=O)CC[C@]3(C)[C@H](CC[C@@H]4[C@@]5(C)CC=C(c6ccc(C(=O)O)cc6)C(C)(C)[C@@H]5CC[C@]43C)[C@@H]12` [Example 12, 4-((1S,3aS,5aR,5bR,7aR,11aS,11bR,13aR,13bR)-1-isopropyl-5a,5b,8,8,11a-pentamethyl-3a-((2-((1S,4S)-5-(methylsulfonyl)-2,5-diazabicyclo[2.2.1]heptan-2-yl)ethyl)amino)-2,3,3a,4,5,5a,5b,6,7,7a,8,11,11a,11b,12,13,13a,13b-octadecahydro-1H-cyclopenta[a]chrysen-9-yl)benzoic acid], which EC50 is on record?
**A.** Its EC50 is < 100 nM.

**Q.** `C=C(C)[C@@H]1CC[C@]2(NCCN3C[C@H]4CC[C@@H](C3)N4C(=O)OC(C)(C)C)CC[C@]3(C)[C@H](CC[C@@H]4[C@@]5(C)CC=C(c6ccc(C(=O)O)cc6)C(C)(C)[C@@H]5CC[C@]43C)[C@@H]12` [Example 13, 4-((1R,3aS,5aR,5bR,7aR,11aS,11bR,13aR,13bR)-3a-((2-((1R,5S)-8-(tert-butoxycarbonyl)-3,8-diazabicyclo[3.2.1]octan-3-yl)ethyl)amino)-5a,5b,8,8,11a-pentamethyl-1-(prop-1-en-2-yl)-2,3,3a,4,5,5a,5b,6,7,7a,8,11,11a,11b,12,13,13a,13b-octadecahydro-1H-cyclopenta[a]chrysen-9-yl)benzoic acid] was tested. Which EC50 did it give?
**A.** The EC50 was > 100 nM.

**Q.** With `C=C(C)[C@@H]1CC[C@]2(NCCN3CC4C(C3)C4NS(C)(=O)=O)CC[C@]3(C)[C@H](CC[C@@H]4[C@@]5(C)CC=C(c6ccc(C(=O)O)cc6)C(C)(C)[C@@H]5CC[C@]43C)[C@@H]12` (stereo partly drawn) [Example 17, 4-((1R,3aS,5aR,5bR,7aR,11aS,11bR,13aR,13bR)-5a,5b,8,8,11a-pentamethyl-3a-((2-(6-(methylsulfonamido)-3-azabicyclo[3.1.0]hexan-3-yl)ethyl)amino)-1-(prop-1-en-2-yl)-2,3,3a,4,5,5a,5b,6,7,7a,8,11,11a,11b,12,13,13a,13b-octadecahydro-1H-cyclopenta[a]chrysen-9-yl)benzoic acid] as the compound, how does the EC50 read?
**A.** The EC50 was < 100 nM.

**Q.** For `C=C(C)[C@@H]1CC[C@]2(NCCN3C[C@H]4C[C@@H]3CS4(=O)=O)CC[C@]3(C)[C@H](CC[C@@H]4[C@@]5(C)CC=C(c6ccc(C(=O)O)cc6)C(C)(C)[C@@H]5CC[C@]43C)[C@@H]12` [Example 18, 4-((1R,3aS,5aR,5bR,7aR,11aS,11bR,13aR,13bR)-3a-((2-((1R,4R)-2,2-dioxido-2-thia-5-azabicyclo[2.2.1]heptan-5-yl)ethyl)amino)-5a,5b,8,8,11a-pentamethyl-1-(prop-1-en-2-yl)-2,3,3a,4,5,5a,5b,6,7,7a,8,11,11a,11b,12,13,13a,13b-octadecahydro-1H-cyclopenta[a]chrysen-9-yl)benzoic acid], which EC50 is on record?
**A.** The EC50 was < 100 nM.

**Q.** Which EC50 does the source give for `C=C(C)[C@@H]1CC[C@]2(NCCN3CC4CC3CO4)CC[C@]3(C)[C@H](CC[C@@H]4[C@@]5(C)CC=C(C6=CCC(C(=O)O)CC6)C(C)(C)[C@@H]5CC[C@]43C)[C@@H]12` (stereo partly drawn) [Example B1, 4-((1R,3aS,5aR,5bR,7aR,11aS,11bR,13aR,13bR)-3a-((2-(2-oxa-5-azabicyclo[2.2.1]heptan-5-yl)ethyl)amino)-5a,5b,8,8,11a-pentamethyl-1-(prop-1-en-2-yl)-2,3,3a,4,5,5a,5b,6,7,7a,8,11,11a,11b,12,13,13a,13b-octadecahydro-1H-cyclopenta[a]chrysen-9-yl)cyclohex-3-enecarboxylic acid] here?
**A.** The EC50 was < 100 nM.
